Test results from patent US8318184B2, “MGLU2 agonists” (Eli Lilly and Company, priority 2009, dated 2012).

Target: T1, hPepT1 (Homo sapiens, UniProt P46059)
T1 construct: expressed in transfected cells; host or cells: HeLa cells (ATCC), transient transfection with FuGene6
T1 sequence (P46059 1-708): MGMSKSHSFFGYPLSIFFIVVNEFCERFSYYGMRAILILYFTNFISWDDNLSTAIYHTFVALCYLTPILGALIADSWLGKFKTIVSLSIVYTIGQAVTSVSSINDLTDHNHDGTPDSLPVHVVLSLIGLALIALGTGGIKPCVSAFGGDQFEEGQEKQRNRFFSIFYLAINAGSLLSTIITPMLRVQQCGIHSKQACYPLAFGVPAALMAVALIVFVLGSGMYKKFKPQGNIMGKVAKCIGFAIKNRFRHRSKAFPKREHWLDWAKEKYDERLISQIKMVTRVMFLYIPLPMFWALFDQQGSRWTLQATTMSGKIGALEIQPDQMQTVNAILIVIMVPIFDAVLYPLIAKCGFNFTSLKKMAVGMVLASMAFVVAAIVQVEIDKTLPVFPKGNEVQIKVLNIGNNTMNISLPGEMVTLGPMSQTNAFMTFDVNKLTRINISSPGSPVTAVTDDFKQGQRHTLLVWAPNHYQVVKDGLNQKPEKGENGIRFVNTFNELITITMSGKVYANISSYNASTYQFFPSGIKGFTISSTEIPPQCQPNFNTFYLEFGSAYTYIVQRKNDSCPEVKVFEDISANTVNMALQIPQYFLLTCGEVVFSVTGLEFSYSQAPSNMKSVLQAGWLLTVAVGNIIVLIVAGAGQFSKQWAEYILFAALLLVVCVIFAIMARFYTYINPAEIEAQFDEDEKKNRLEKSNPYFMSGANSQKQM
Experiment: In Vitro PepT1 GlySar Inhibition Screen and IC50 Determination
Type: cell-based
Experimental: PepT1 assays are established to examine the ability of the amino acid prodrug compounds to interact with the intestinal absorption transporter PepT1.
HeLa cells, […], (American Type Culture Collection) are grown in Hyclone Medium (Invitrogen, Cat# SH30243) containing 10% fetal bovine serum (FBS), 0.1 mM non essential amino acids (NEAA), and 100 units/mL penicillin with 100 μg/mL streptomycin at 37° C. in a 5% CO2 humidified atmosphere. The cell line is used for up to 40 passages and then discarded. Frozen cells in 1 ml vials are thawed in water bath for 1-2 minutes and added to 5 mL of cell medium at 37° C. Each of the T-flasks is provided with 8.5 mL of the fresh medium and 1.5 mL of the cell stock. Cells are passaged twice during a week. This is achieved by rinsing the flasks with 10 mL of phosphate buffered saline-ethylene diaminetetra acetic acid (PBS-EDTA), adding 2 mL of trypsin for 2-5 minutes, to detach the cells, and adding 8 mL of fresh medium to inhibit further activity of trypsin. Each new flask receives a combination of 8.5 mL of fresh medium and 1.5 mL of cell stock, in order to obtain 1:6 cell dilution. Cells are incubated at 37° C., until ready for the uptake study.
Cells that are 70-80% confluent in the T-flasks are plated 1 day prior to the transfection procedure. The flask with the cell stock is treated with PBS-EDTA and trypsin to detach the cells, and transfection medium is used from this point. Transfection medium consists of Dulbecco's Modified Eagle Medium (DMEM)+NEAA. To each well, 0.5 mL of the cell mixture is added (1.3×10^5 is the desired cell concentration) and the cells are incubated at 37° C. overnight. Twenty four hours before the assay, cells are transfected with PEPT1. Transfection mixture is prepared by mixing 600 μL of serum free transfection medium, 18 μL of FuGene6 (Roche Diagnostics), and 11 μg of the PepT1 DNA. The transfection reagent-DNA complex is incubated for 20 minutes and 24 μL of the reagent-DNA complex is added to each well.
J. Pharm. Exper Ther. 310:437-445). […] Uptake media consists of 140 mM NaCl, 5.4 mM KCl, 1.8 mM CaCl2, 0.8 mM MgSO4, 5 mM Glucose, 25 mM tris(hydroxymethyl)aminomethane buffer (TRIS). The solution is then brought to pH 6.0 using 2-(N-morpholino)ethanesulfonic acid. The incubation volume is 500 μL and is performed at room temperature for 3 minutes. To stop the uptake at the conclusion of the incubation time, the uptake media is aspirated off of the cell monolayer and 500 μL of ice cold PBS added to the well. The cells are washed 3 times with 500 μL of room temperature PBS without Ca^+2 and Mg^+2. The cells are then lysed with 300 μL of 1% Triton X100 H2O solution. […] A no inhibitor control is established and the percent inhibition of each prodrug is calculated with respect to this control.
The incubation and sampling procedures are exactly the same as the PepT1 screen described above. […]

C[C@H](N)C(=O)N[C@@]1(C(=O)O)C[C@@H](Sc2nnc[nH]2)[C@H]2[C@H](C(=O)O)[C@H]21.Cl [Example 2, (1R,2S,4R,5R,6R)-2-[[(2S)-2-Aminopropanoyl]amino]-4-(1H-1,2,4-triazol-3-ylsulfanyl)bicyclo[3.1.0]hexane-2,6-dicarboxylic acid hydrochloride] showed an inhibition at 5000 µM (5 mM, pH 6.0, PepT1 transiently transfected HeLa cells, read-out: hPepT1 [3H]Gly-Sar uptake inhibition at 5 mM) of 38% and an IC50 (0.0625 to 25 mM, PepT1 transfected HeLa cells, read-out: hPepT1 [3H]Gly-Sar uptake inhibition IC50) of 1840 µM.
